Three molecules from patent US20240409501A1, “CYRSTALLINE FORMS OF RIP1 INHIBITOR” (SIRONAX LTD., priority 2021, published 2024) can be followed below.

SMILES strings stand for the structures. In brackets after ≈: the same amount, converted by molar mass. Entries after “also recorded” stand apart in the source; their conditions may differ.

Common to all, as to format: physicochemical
Data set [1] is described as follows: Form conversion of Type C on vacuum drying (XRPD). As to conditions: vacuum dried at 50° C. From the text:
Type C of N-(3,5-difluorobenzyl)-N-hydroxy-2,2-dimethylbutanamide (817506-10-A10) was obtained via liquid vapor diffusion of a DMSO solution of a starting material (817506-01-A) in H2O atmosphere.

A short description of data set [2]: Hygroscopicity, DVS isotherm at 25° C. between 0 and 95% RH. On the procedure:
To investigate the solid from stability as a function of humidity, a DVS isotherm plot of Type A (817506-48-A2) was collected at 25° C. between 0 and 95% RH. […] (onset) after the DVS test.
DVS was measured Via an SMS (Surface Measurement Systems) DVS Intrinsic. The relative humidity at 25° C. was calibrated against deliquescence point of LiCl. Mg(NO3)2 and KCl.

Data set [3] can be described thus: Solid state stability (XRPD, DSC, HPLC after storage). To be noted: for % of Initial: HPLC purity. The procedure:
To evaluate the solid state stability, a Type A sample (817506-48-A2) was stored under 80° C. for one day, and 25° C./60% RH and 40° C./75% RH for one week each. […] DSC characterization results were shown from FIG. 35 to FIG. 37. Only one endotherm at about 95° C. was observed, indicating the solids under all the conditions were pure Type A.
(§1) An Agilent 1290 UPLC with DAD detector and Agilent 1260 HPLC with VWD detector were use and detailed chromatographic conditions for purity and solubility analysis are listed in Table 42 and Table 43.

Data set [4] is described as follows: Equilibrium solubility of Type A in H2O at RT. On the procedure:
Equilibrium solubility of Type A in H2O was measured at RT. Specifically, 10.0 mg of a Type A sample (817506-48-A2) was suspended into 1 mL of H2O (˜1000 rpm) at RT. After 24 hrs, the suspension was centrifuged (10000 rpm, 5 min, RT) followed by filtration (0.45 μm PTFE membrane). The supernatant (first few drops were discarded) was analyzed for HPLC solubility and pH, and the residual solids were used for XRPD analysis.
as §1

A short description of data set [5]: Photo stability under white light and ultraviolet (ICH guideline). On the procedure: Photo stability of Type A (817506-48-A2) was assessed under both white light (1,200,000 Lux-hrs) and ultraviolet (200 W·hrs/m^2) conditions according to the ICH guideline. […] Only an endotherm at about 95° C. was observed on the DSC curves (FIGS. 42-43).
Data set [6] is described as follows: Approximate solubility in 20 solvent systems at RT. On the procedure: Approximate solubility of N-(3,5-difluorobenzyl)-N-hydroxy-2,2-dimethylbutanamide (817506-01-A) was measured in 20 solvent systems at RT. Approximately 2 mg of the sample was added into a 3-mL glass vial. Solvents as shown in Table 36 were then added stepwise (50/50/200/700/1000 μL) into the vials until the solids were dissolved visually or a total volume of 2 mL was reached. Solubility results summarized in Table 36 were used to guide the solvent selection in preparing the solid forms as disclosed herein.

[7] abbreviates: White light (1,200,000 Lux-hrs).

As to `CCC(C)(C)C(=O)N(O)Cc1cc(F)cc(F)c1` [Type C, N-(3,5-difluorobenzyl)-N-hydroxy-2,2-dimethylbutanamide], the form after drying entry in data set [1] is “converted to Type A”.
By solubility is commonly meant how much of the substance goes into solution per volume. `CCC(C)(C)C(=O)N(O)Cc1cc(F)cc(F)c1` [Type A, N-(3,5-difluorobenzyl)-N-hydroxy-2,2-dimethylbutanamide]: in data set [2] (25° C./80VRH), the water uptake (DVS plot) stood at 0.1%. Moreover, in data set [2] (80% RH/25° C.), the “water uptake (DVS)” value was “about 0.10%”. Moreover, in data set [2] (DVS at 25° C.), the hygroscopicity entry is listed as “non-hygroscopic”. The “form change after the DVS test” value in data set [2] (XRPD before and after DVS) is on record as “no form change”. Moreover, the “Final Form” value in data set [3] (25° C./60% RH/1 w), in data set [3] (40° C./75% RH/1 w) and in data set [3] (80° C./1 d) was “Type A” in each case. Also, the “% of Initial” value in data set [3] (25° C./60% RH/1 w), in data set [3] (40° C./75% RH/1 w) and in data set [3] (80° C./1 d) was 100.0% throughout. For the same molecule, the “form change or decrease in purity” value in data set [3] (all conditions: 80° C. one day, 25° C./60% RH and 40° C./75% RH one week each) was “No crystalline form change or HPLC purity decrease; also recorded: No form change or decrease in purity”. For the same molecule, the Form change entry in data set [4] (after suspending in H2O at RT for about 24 hrs, XRPD of residual solids) was “no crystalline type change and no form change and No”. Also, the pH in data set [4] (supernatant after suspension in H2O at RT for 24 hrs) stood at 8.7. The solubility at 24 h in data set [4] (water, thermodynamic from solid, equilibrium solubility in H2O, RT, 24 hrs, HPLC) is ~0.15 mg/mL (≈ 0.583 mM). Also, the Form result in data set [5] (UV (200 W·hrs/m^2)) and in data set [5] (setting [7]) was “Type A” throughout. The “Purity (area %)” value in data set [5] (UV (200 W·hrs/m^2)) and in data set [5] (setting [7]) was 100.0 area % each time. Besides, the “form change after photo stability evaluation” value in data set [5] (both white light and ultraviolet, XRPD and DSC) was “No crystalline form change or HPLC purity decrease; also recorded: no form change”. Moreover, in data set [5] (white light and ultraviolet, HPLC), the “purity decrease after photo stability evaluation” value is “no purity decrease”.
As to `CCC(C)(C)C(=O)N(O)Cc1cc(F)cc(F)c1` [N-(3,5-difluorobenzyl)-N-hydroxy-2,2-dimethylbutanamide], the solubility was > 46 mg/mL in data set [6] (organic solvent or mixture, thermodynamic from solid, 1,4-Dioxane, RT); 2.2 to 7.3 mg/mL (≈ 8.55 to 28.4 mM) in data set [6] (organic solvent or mixture, thermodynamic from solid, 2-MeTHF, RT); > 50 mg/mL in data set [6] (organic solvent or mixture, thermodynamic from solid, ACN, RT); > 46 mg/mL in data set [6] (organic solvent or mixture, thermodynamic from solid, Acetone, RT); > 50 mg/mL in data set [6] (organic solvent or mixture, thermodynamic from solid, CHCl3, RT); > 50 mg/mL in data set [6] (organic solvent or mixture, thermodynamic from solid, DCM, RT). Also, the solubility in data set [6] (organic solvent or mixture, thermodynamic from solid, DMAc, RT) was 21 to 42 mg/mL (≈ 81.6 to 163 mM); in data set [6] (organic solvent or mixture, thermodynamic from solid, DMSO, RT), > 42 mg/mL; in data set [6] (organic solvent or mixture, thermodynamic from solid, EtOAc, RT) it was > 44 mg/mL; in data set [6] (organic solvent or mixture, thermodynamic from solid, EtOH, RT), > 40 mg/mL; in data set [6] (organic solvent or mixture, thermodynamic from solid, IPA, RT) it was > 42 mg/mL; in data set [6] (organic solvent or mixture, thermodynamic from solid, IPAC, RT), > 50 mg/mL. Besides, the solubility in data set [6] (organic solvent or mixture, thermodynamic from solid, MIBK, RT) was > 50 mg/mL; in data set [6] (organic solvent or mixture, thermodynamic from solid, MTBE, RT), 2.3 to 7.7 mg/mL (≈ 8.94 to 29.9 mM); in data set [6] (organic solvent or mixture, thermodynamic from solid, MeOH, RT), > 46 mg/mL; in data set [6] (organic solvent or mixture, thermodynamic from solid, NMP, RT), 2.4 to 48 mg/mL (≈ 9.33 to 187 mM); in data set [6] (organic solvent or mixture, thermodynamic from solid, THF, RT), 25 to 50 mg/mL (≈ 97.2 to 194 mM); in data set [6] (organic solvent or mixture, thermodynamic from solid, Toluene, RT), 20 to 40 mg/mL (≈ 77.7 to 155 mM). For the same molecule, the solubility was < 1 mg/mL in data set [6] (organic solvent or mixture, thermodynamic from solid, n-Heptane, RT) and < 1.3 mg/mL in data set [6] (water, thermodynamic from solid, H2O, RT).
